A short description of data set [1]: Fluorescence excitation and emission spectrum of the dyes. In kind it is physicochemical. As to conditions: for Em / emission max / Ex Peak / excitation max: solvent not given.
The subject of another data set is live and dead cells. The data set is described as follows: Cell viability detection with amine reactive viability dye by flow cytometry. As to conditions: mix of live and dead cells. In kind it is cell-based. The protocol: Pipet 100 uL of prepared cells in biological buffer or media in a reaction vessel such as a tube or microwell plate. Add 100 uL of working solution to 100 uL cell sample; mix well and incubate at the room temperature for 15 minutes. Remove supernatant without disturbing the pellet. Wash the cells with PBS with bovine serum albumin (BSA) (range 0.2-10%) per well; centrifuge plate at 1000 rpm for 5 minutes; remove the supernatant by aspiration without disturbing the cell pellet.
Cells were killed by heat or treated with diamide or staurosporine inducers.
For orientation: In flow cytometry, cells or beads pass a laser one at a time.

Another data set concerns painted cells. The data set is described as follows: Cell painting applications. In kind it is cell-based.

As for `CC1(C)C(/C=C/C=C/C=C2\Oc3ccccc3N2Cc2ccc(CC(=O)ON3C(=O)CCC3=O)cc2)=[N+](Cc2ccc(CC(=O)ON3C(=O)CCC3=O)cc2)c2ccc(S(=O)(=O)[O-])cc21` [Compound No. 14], in data set [1] (in Methanol), the Em was 642 nm, the Ex came out at 609 nm and the absorption max came to 609 nm. In data set [1], the “Em / emission max” value amounted to 642 nm and the “Ex Peak / excitation max” value is given as 609 nm. Further, the “separation of live and dead cells” value in the data set with live and dead cells is “can clearly distinguish live (low fluorescence) and dead cells (high fluorescence)”.

In data set [1] (in Methanol), `CC1(C)C(/C=C/C=C/C=C2/N(Cc3ccc(CC(=O)O)cc3)c3ccccc3C2(C)C)=[N+](Cc2ccc(CC(=O)O)cc2)c2ccccc21.[Br-]` [Compound No. 16] gave an Em of 679 nm and an Ex of 650 nm. In addition, in data set [1], the “Em / emission max” value is 642 nm and the “Ex Peak / excitation max” value came to 609 nm.

For `O=C(Cc1ccc(CN2/C(=C/C=C/c3oc4ccccc4[n+]3Cc3ccc(CC(=O)ON4C(=O)CCC4=O)cc3)Oc3ccccc32)cc1)ON1C(=O)CCC1=O.[Br-]` [Compound No. 10], in data set [1] (in Methanol), the Em is on record as 508 nm and the Ex is recorded as 490 nm. Besides, in data set [1], the “Em / emission max” value turned out to be 507 nm and the “Ex Peak / excitation max” value stood at 489 nm.

Take `Cc1ccc(CN2/C(=C/C=C/C3=[N+](Cc4ccc(C)cc4)c4ccccc4C3(C)C)C(C)(C)c3ccccc32)cc1.[Br-]` [Compound No. 18]: in data set [1] (in Methanol), the Em stood at 574 nm and the Ex is 551 nm. Also, in data set [1], the “Em / emission max” value is 574 nm and the “Ex Peak / excitation max” value is recorded as 551 nm. The “utility for labeling and painting cells” value in the data set with painted cells was “good utility for painting cells”.

In data set [1] (in Methanol), `CC(C(=O)O)c1ccc(C[N+]2=C(/C=C/C=C3\Oc4ccccc4N3Cc3ccc(CC(=O)O)cc3)C(C)(C)c3cc(S(=O)(=O)[O-])ccc32)cc1` (stereo not drawn) [Compound No. 11] returned an Em of 541 nm and an Ex of 510 nm. Moreover, in data set [1], the “Em / emission max” value is 542 nm and the “Ex Peak / excitation max” value is on record as 510 nm.

In data set [1] (in Methanol), `Cc1ccc(CN2/C(=C/C=C/C=C/C3=[N+](Cc4ccc(C)cc4)c4ccccc4C3(C)C)C(C)(C)c3ccccc32)cc1.[Br-]` [Compound No. 19] showed an Em of 674 nm and an Ex of 650 nm. Moreover, in data set [1], the “Em / emission max” value was found to be 674 nm and the “Ex Peak / excitation max” value is on record as 650 nm. Besides, in the data set on painted cells, the “utility for labeling and painting cells” value was “good utility for labeling and painting cells”. The “retention of dye in painted cells” value in the data set with painted cells (3 h time period) is reported as “good retention of dye”. Moreover, in the data set on painted cells (microscopy), the localization of dye entry is on record as “localized intracellularly”.

Regarding `CC(C(=O)ON1C(=O)CCC1=O)c1ccc(C[N+]2=C(/C=C/C=C3\Oc4ccccc4N3Cc3ccc(CC(=O)ON4C(=O)CCC4=O)cc3)C(C)(C)c3cc(S(=O)(=O)[O-])ccc32)cc1` (stereo not drawn) [Compound No. 12], in data set [1] (in Methanol), the Em stood at 541 nm and the Ex was 510 nm. Moreover, in data set [1], the “Em / emission max” value worked out at 541 nm and the “Ex Peak / excitation max” value came out at 510 nm. Also, the “separation of live and dead cells” value with live and dead cells is “excellent separation of live and dead cells”.

In data set [1] (in Methanol), `O=C(O)Cc1ccc(CN2/C(=C/C=C/c3oc4ccccc4[n+]3Cc3ccc(CC(=O)O)cc3)Oc3ccccc32)cc1.[Br-]` [Compound No. 9] registered an Em of 507 nm and an Ex of 489 nm. In addition, in data set [1], the “Em / emission max” value is reported as 507 nm and the “Ex Peak / excitation max” value worked out at 489 nm.

The values above are taken from patent US20120088262A1, “CYANINE COMPOUNDS, CONJUGATES AND METHOD OF USE” (Millipore Corporation, priority 2010, published 2012).
